Measurements as given in US20220356162A1, “Heterocyclic Compounds as Lipoxygenase Inhibitors” (Dr. Reddy's Institute of Life Sciences, priority 2019, published 2022).
Like-named read-outs stand apart in the source and are kept apart here.

Assays:
human 12R-LOX enzyme = target: T1, human 12R-LOX enzyme (Homo sapiens, UniProt O75342); assay: Screening of compounds against 12R-LOX in isolated enzyme systems; type: biochemical; settings: for inhibition at 100 µM: read-out: % Inhibition (at 100 μM)
T1 construct: Coding region of the cDNA was amplified from the basic vector pCMV6Neo-12R-LOX (OriGene, USA) and was ligated into pET28(b); His-tag (N); made in house; host or cells: E. coli BL21 Rossetta DE3
T1 sequence (O75342 1-701): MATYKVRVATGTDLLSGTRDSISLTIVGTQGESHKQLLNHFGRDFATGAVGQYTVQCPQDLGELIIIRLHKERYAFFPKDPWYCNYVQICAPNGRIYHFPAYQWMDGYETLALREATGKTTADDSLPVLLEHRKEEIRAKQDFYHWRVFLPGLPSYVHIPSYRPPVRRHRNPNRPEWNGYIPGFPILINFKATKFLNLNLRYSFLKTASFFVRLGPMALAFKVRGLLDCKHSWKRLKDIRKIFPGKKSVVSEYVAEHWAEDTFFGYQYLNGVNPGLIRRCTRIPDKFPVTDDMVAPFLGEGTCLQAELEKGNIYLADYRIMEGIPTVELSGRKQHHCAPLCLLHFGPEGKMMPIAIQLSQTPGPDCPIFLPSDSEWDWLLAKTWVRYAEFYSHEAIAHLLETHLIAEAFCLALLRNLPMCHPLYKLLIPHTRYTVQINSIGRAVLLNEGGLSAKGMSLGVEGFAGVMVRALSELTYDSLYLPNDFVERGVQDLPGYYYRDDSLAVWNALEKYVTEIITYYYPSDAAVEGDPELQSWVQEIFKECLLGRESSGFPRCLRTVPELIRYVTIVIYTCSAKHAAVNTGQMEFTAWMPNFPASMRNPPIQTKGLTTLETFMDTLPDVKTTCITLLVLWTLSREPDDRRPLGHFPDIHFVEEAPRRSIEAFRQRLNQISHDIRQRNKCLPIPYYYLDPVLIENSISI
Source text: Human 12R-LOX gene was cloned and expressed as an N-terminally His-tagged fusion protein. Coding region of the cDNA was amplified from the basic vector pCMV6Neo-12R-LOX (OriGene, USA) and was ligated into pET28(b), a prokaryotic protein expression vector. E. coli BL21 Rossetta DE3 (an engineered strain of BL21) was transformed with the pET28(b) recombinant vector containing Kanamycin and chloramphenicol resistance gene as the selection markers. Single colony selected on kanamycin and chloramphenicol was checked for the expression of the protein. For this single colony was cultured at 37° C. in LB medium containing […] kanamycin and […] chloramphenicol to reach an absorbance of 0.6 at 600 nm. The cultured bacteria were then induced to express recombinant protein by using isopropyl β-D-thiogalactopyranoside (IPTG) (1 mM final concentration) at 18° C. The culture was incubated for 8-12 h and then the culture was spun down to collect the bacterial cells. The cells were re-suspended in the required amount of phosphate buffer saline (PBS) containing protease inhibitor. The cells were then lysed by sonication to extract the protein. The cells were sonicated for 5 min. and then debris was removed by centrifugation at 13000 rpm for 30 min at 4° C. The clear supernatant was collected and was used as the source of enzyme.
Purification of the recombinant 12R-LOX protein was performed using nickel-nitrilotriacetic acid (Ni-NTA) metal-affinity chromatography as per manufacturer's protocol. Briefly, Ni-NTA slurry (500 microliters for 150 mL of culture) was added to the cleared bacterial lysate and mixed gently by shaking at 4° C. for 60 min. Then the lysate—Ni-NTA slurry was loaded into a column. The column was then washed with 10 mL of washing buffer (50 mM phosphate buffer with 300 mM sodium chloride) containing 20 mM imidazole to remove loosely bound proteins. Then tightly bound proteins were eluted from the column with elution buffer (50 mM phosphate buffer with 300 mM sodium chloride) containing 300 mM imidazole. The purified protein fractions were then analyzed further by SDS-PAGE and western blotting to confirm the presence of 12R-LOX (FIGS. 1a and 1b).
Fractions with human 12R-LOX protein were added to a total volume of 0.3 mL of phosphate buffered saline (pH 7.4) and incubated with substrate, arachidonic acid methyl ester. The mixture was vortexed and incubated for 15 min at 37° C. […] After 5 min the reaction was acidified to pH 3 with 50 μL of acetic acid and then the proteins were precipitated with the addition of 0.3 mL of ice-cold methanol. The total mixture was centrifuged (14000 rpm for 15 min) to remove the proteins and the clear supernatant was analysed on reverse phase HPLC (RP-HPLC). The solvent system used was methanol:water:acetic acid in the ratio of 85:15:0.1 with a flow rate of 1 mL/min on a C18 column. The chromatograms were followed by monitoring the absorbance for HETE products at 235 nm. Individual peak areas in each chromatogram were taken for further comparison analysis.
Baicalein, the standard 12R-LOX inhibitor, was used as a positive control for all inhibition assays performed. The compounds were evaluated for their inhibitory action against human 12R-LOX enzyme at 100 μM concentration in vitro. Further, IC50 of the compounds of the present invention were determined.

[1] = 12R-LOX inhibitory activities in vitro
[2] = 12R-LOX inhibitory activities in vitro, 100 μM concentration

Structure (SMILES)	melting point [°C]	IC50 (human 12R-LOX enzyme; [1]) [µM]	inhibition at 100 µM (human 12R-LOX enzyme; [2]) [%]	inhibition at 100 µM (human 12R-LOX enzyme) [%]
CS(=O)(=O)Nc1ccc(OS(C)(=O)=O)cc1-c1cc(=O)c2ccccc2o1 [Compound 2, 4-(Methylsulfonamido)-3-(4-oxo-4H-chromen-2-yl)phenylmethane Sulfonate]			56	
C#CCOc1ccc(NS(=O)(=O)c2ccccc2)c(-c2cc(=O)c3ccccc3o2)c1 [Compound 7, N-(2-(4-Oxo-4H-chromen-2-yl)-4-(prop-2-ynyloxy)phenyl)benzene sulfonamide]	152 to 154			21 ± 7
O=c1cc(-c2cc(O)ccc2NS(=O)(=O)c2ccccc2)oc2ccccc12 [Compound 8, N-(4-Hydroxy-2-(4-oxo-4H-chromen-2-yl)phenyl)benzene Sulfonamide]	> 200			
C#CCOc1ccc(NC(=O)c2ccccc2)c(-c2cc(=O)c3ccccc3o2)c1 [Compound 11, N-(2-(4-Oxo-4H-chromen-2-yl)-4-(prop-2-ynyloxy)phenyl) benzamide]	154 to 156			
O=C(Nc1ccc(O)cc1-c1cc(=O)c2ccccc2o1)c1ccccc1 [Compound 12, N-(4-Hydroxy-2-(4-oxo-4H-chromen-2-yl)phenyl)benzamide]	> 200			
Nc1ccc(O)cc1-c1cc(=O)c2ccc(F)cc2o1 [Compound 13, 2-(2-Amino-5-hydroxyphenyl)-7-fluoro-4H-chromen-4-one]	200 to 202		21 ± 8.4	
Nc1ccc(O)cc1-c1cc(=O)c2cc(Br)ccc2o1 [Compound 14, 2-(2-Amino-5-hydroxyphenyl)-6-bromo-4H-chromen-4-one]	> 200		6.95 ± 1.6	
O=c1cc(-c2cc(O)ccc2NS(=O)(=O)c2ccc([N+](=O)[O-])cc2)oc2ccccc12 [Compound 15, N-(4-Hydroxy-2-(4-oxo-4H-chromen-2-yl)phenyl)-4-nitrobenzenesulfonamide]	> 200		6.33 ± 5.9	
Nc1ccc(O)cc1-c1cc(=O)c2cc(O)ccc2o1 [Compound 16, 2-(2-Amino-5-hydroxyphenyl)-6-hydroxy-4H-chromen-4-one]	130 to 132		38.3 ± 3.8	
O=c1cc(-c2cc(O)ccc2NS(=O)(=O)c2ccc(C(F)(F)F)cc2)oc2ccccc12 [Compound 17, N-(4-Hydroxy-2-(4-oxo-4H-chromen-2-yl)phenyl)-4-(trifluoromethyl)benzenesulfonamide]	160 to 162		30 ± 5	
Nc1ccc(O)cc1-c1cc(=O)c2ccc(Br)cc2o1 [Compound 18, 2-(2-Amino-5-hydroxyphenyl)-7-bromo-4H-chromen-4-one]	> 200	98.1	53.5 ± 4.2	

Further lines, with some results ahead:

melting point [°C]	IC50 (human 12R-LOX enzyme; [1]) [µM]	inhibition at 100 µM (human 12R-LOX enzyme; [2]) [%]	Structure (SMILES)	inhibition at 100 µM (human 12R-LOX enzyme) [%]
202 to 204	188	40	Nc1ccc(O)cc1-c1cc(=O)c2ccccc2o1 [Compound 1, 2-(2-Amino-5-hydroxyphenyl)-4H-chromen-4-one]	
	97	51	Nc1cc(I)c(O)cc1-c1cc(=O)c2ccccc2o1 [Compound 3, 2-(2-Amino-5-hydroxy-4-iodophenyl)-4H-chromen-4-one]	
118 to 120			COc1ccc(N)c(-c2cc(=O)c3ccccc3o2)c1 [Compound 4, 2-(2-Amino-5-methoxyphenyl)-4H-chromen-4-one]	
88 to 90			CCOc1ccc(N)c(-c2cc(=O)c3ccccc3o2)c1 [Compound 5, 2-(2-Amino-5-ethoxyphenyl)-4H-chromen-4-one]	
153 to 155			C#CCOc1ccc(N)c(-c2cc(=O)c3ccccc3o2)c1 [Compound 6, 2-(2-Amino-5-(prop-2-ynyloxy)phenyl)-4H-chromen-4-one]	
